Legend:
HCV replicon cells = assay: HCV replicon assay (FRET or luciferase readout); type: cell-based; settings: Table 1
Description: FRET Assay Preparation. To perform the HCV FRET screening assay, 96-well cell culture plates were used. The FRET peptide (Anaspec, Inc.) (Taliani et al., Anal. Biochem. 1996, 240, 60-67) contains a fluorescence donor, EDANS, near one end of the peptide and an acceptor, DABCYL, near the other end. The fluorescence of the peptide is quenched by […] resonance energy transfer (RET) between the donor and the acceptor, but as the NS3 protease cleaves the peptide the products are released from RET quenching and the fluorescence of the donor becomes apparent. The assay reagent was made as follows: 5× cell Luciferase cell culture lysis reagent from Promega (#E153A) diluted to 1× with dH2O, NaCl added to 150 mM final, the FRET peptide diluted to 20 μM final from a 2 mM stock.
To prepare plates, HCV replicon cells, with or without a Renilla luciferase reporter gene, were trypsinized and placed into each well of a 96-well plate with titrated test compounds added in columns 3 through 12; columns 1 and 2 contained a control compound (HCV protease inhibitor), and the bottom row contained cells without compound. The plates were then placed in a CO2 incubator at 37° C.
Assays. Subsequent to addition of the test compounds described above (FRET Assay Preparation), at various times the plate was removed and Alamar blue solution (Trek Diagnostics, #00-100) was added per well as a measure of cellular toxicity. After reading in a Cytoflour 4000 instrument (PE Biosystems), plates were rinsed with PBS and then used for FRET assay by the addition of 30 ul of the FRET peptide assay reagent described above (FRET Assay Preparation) per well. The plate was then placed into the Cytoflour 4000 instrument which had been set to 340 excite/490 emission, automatic mode for 20 cycles and the plate read in a kinetic mode. Typically, the signal to noise using an endpoint analysis after the reads was at least three-fold. Alternatively, after Alamar blue reading, plates were rinsed with PBS, 50 ul of DMEM (high glucose) without phenol red was added and plates were then used for luciferase assay using the Promega Dual-Glo Luciferase Assay System.
Compound analysis was determined by quantification of the relative HCV replicon inhibition and the relative cytotoxicity values. To calculate cytoxicity values, the average Alamar Blue fluorescence signals from the control wells were set as 100% non-toxic. The individual signals in each of the compound test wells were then divided by the average control signal and multiplied by 100% to determine […]. To calculate the HCV replicon inhibition values, an average background value was obtained from the two wells containing the highest amount of HCV protease inhibitor at the end of the assay period. These numbers were similar to those obtained from naïve Huh-7 cells.
The background numbers were then subtracted from the average signal obtained from the control wells and this number was used as 100% activity. The individual signals in each of the compound test wells were then divided by the averaged control values after background subtraction and multiplied by 100% to determine percent activity. EC50 values for a protease inhibitor titration were calculated as the concentration which caused a 50% reduction in FRET or luciferase activity. The two numbers generated for the compound plate, percent cytoxicity and percent activity were used to determine compounds of interest for further analysis.

[1] = target: T1, HCV NS5B RdRp genotype 1b (Hepatitis C virus genotype 1b, UniProt Q9WMX2); assay: HCV NS5B RdRp enzyme assay (standard / modified); type: biochemical; settings: Table 1; HCV NS5B genotype 1b
T1 construct: The protein was expressed with an 18 amino acid C-terminal truncation to enhance the solubility; made in house; host or cells: E. coli BL21(DE3), pET21a vector
Experimental: HCV NS5B RdRp cloning, expression, and purification. The cDNA encoding the NS5B protein of HCV, genotype 1b, was cloned into the pET21a expression vector. The protein was expressed with an 18 amino acid C-terminal truncation to enhance the solubility. The E. coli competent cell line BL21(DE3) was used for expression of the protein. Cultures were grown at 37° C. for ˜4 hours until the cultures reached an optical density of 2.0 at 600 nm. The cultures were cooled to 20° C. and induced with 1 mM IPTG. Fresh ampicillin was added to a final concentration of 50 μg/ml and the cells were grown overnight at 20° C.
Cell pellets (3 L) were lysed for purification to yield 15-24 mgs of purified NS5B. The lysis buffer consisted of 20 mM Tris-HCl, pH 7.4, 500 mM NaCl, 0.5% triton X-100, 1 mM DTT, 1 mM EDTA, 20% glycerol, 0.5 mg/ml lysozyme, 10 mM MgCl2, 15 ug/ml deoxyribonuclease I, and Complete™ protease inhibitor tablets (Roche). After addition of the lysis buffer, frozen cell pellets were resuspended using a tissue homogenizer. To reduce the viscosity of the sample, aliquots of the lysate were sonicated on ice using a microtip attached to a Branson sonicator. The sonicated lysate was centrifuged at 100,000×g for 1 hr at 4° C. and filtered through a 0.2 μm filter unit (Corning).
The protein was purified using three sequential chromatography steps: Heparin sepharose CL-6B, polyU sepharose 4B, and Hitrap SP sepharose (Pharmacia). The chromatography buffers were identical to the lysis buffer but contained no lysozyme, deoxyribonuclease I, MgCl2 or protease inhibitor and the NaCl concentration of the buffer was adjusted according to the requirements for charging the protein onto the column. Each column was eluted with a NaCl gradient which varied in length from 5-50 column volumes depending on the column type. After the final chromatography step, the resulting purity of the enzyme is >90% based on SDS-PAGE analysis. The enzyme was aliquoted and stored at −80° C.
Standard HCV NS5B RdRp enzyme assay. HCV RdRp genotype 1b assays were run in a final volume of 60 μl in 96 well plates (Costar 3912). The assay buffer is composed of 20 mM Hepes, pH 7.5, 2.5 mM KCl, 2.5 mM MgCl2, 1 mM DTT, 1.6 U RNAse inhibitor (Promega N2515), 0.1 mg/ml BSA (Promega R3961), and 2% glycerol. All compounds were serially diluted (3-fold) in DMSO and diluted further in water such that the final concentration of DMSO in the assay was 2%. HCV RdRp genotype 1b enzyme was used at a final concentration of 28 nM. A polyA template was used at 6 nM, and a biotinylated oligo-dT12 primer was used at 180 nM final concentration. Template was obtained commercially (Amersham 27-4110). Biotinylated primer was prepared by Sigma Genosys. 3H-UTP was used at 0.6 μCi (0.29 μM total UTP). Reactions were initiated by the addition of enzyme, incubated at 30° C. for 60 min, and stopped by adding 25 μl of 50 mM EDTA containing SPA beads (4 μg/μl, Amersham RPNQ 0007). Plates were read on a Packard Top Count NXT after >1 hr incubation at room temperature.
Modified HCV NS5B RdRp enzyme assay. A modified enzyme assay was performed essentially as described for the standard enzyme assay except for the following: The biotinylated oligo dT12 primer was precaptured on streptavidin-coated SPA beads by mixing primer and beads in assay buffer and incubating at room temperature for one hour. Unbound primer was removed after centrifugation. The primer-bound beads were resuspended in 20 mM Hepes buffer, pH 7.5 and used in the assay at final concentrations of 20 nM primer and 0.67 μg/μl beads. Order of addition in the assay: enzyme (14 nM) was added to diluted compound followed by the addition of a mixture of template (0.2 nM), 3H-UTP (0.6 μCi, 0.29 μM), and primer-bound beads, to initiate the reaction; concentrations given are final. Reactions were allowed to proceed for 4 hours at 30° C.
IC50 values for compounds were determined using seven different [I]. […]

T1 sequence (Q9WMX2 2420-2992): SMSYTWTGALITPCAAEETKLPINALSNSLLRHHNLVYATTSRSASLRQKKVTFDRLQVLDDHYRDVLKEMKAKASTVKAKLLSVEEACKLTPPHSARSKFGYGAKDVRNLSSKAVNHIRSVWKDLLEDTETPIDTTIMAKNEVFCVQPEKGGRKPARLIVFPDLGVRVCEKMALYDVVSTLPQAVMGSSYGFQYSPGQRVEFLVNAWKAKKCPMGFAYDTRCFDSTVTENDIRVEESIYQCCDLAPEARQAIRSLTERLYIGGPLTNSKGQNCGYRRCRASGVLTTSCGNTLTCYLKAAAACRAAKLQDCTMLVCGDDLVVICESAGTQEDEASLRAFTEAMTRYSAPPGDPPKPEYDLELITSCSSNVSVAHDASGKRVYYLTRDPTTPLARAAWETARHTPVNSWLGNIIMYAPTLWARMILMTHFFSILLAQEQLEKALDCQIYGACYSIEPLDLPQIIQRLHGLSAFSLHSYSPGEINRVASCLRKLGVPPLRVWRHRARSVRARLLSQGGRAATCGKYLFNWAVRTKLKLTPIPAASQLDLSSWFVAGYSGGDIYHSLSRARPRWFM

Row | Structure (SMILES) | EC50 (HCV replicon cells; Hepatitis C virus) [nM] | IC50 [1] [nM] | EC50 (HCV replicon cells) [nM]
1 | CNC(=O)c1c(-c2ccc(F)cc2)nn2ccc(-c3cc(C(=O)NC4(c5ccc(F)cc5)CC4)ccc3C)cc12 | 2 to 250 | 2 to 250 | –
2 | CNC(=O)c1c(-c2ccc(F)cc2)n(C)c2ccc(-c3cccc(C(=O)NC(C)(C)c4ccccc4)c3)cc12 | > 10000 | > 10000 | –
3 | CNC(=O)c1cccc(-c2ccc3c(C(=O)NC)c(-c4ccccc4)nn3c2)c1 | > 10000 | > 10000 | –
4 | CNC(=O)c1c(-c2ccc(F)cc2)nn2ccc(-n3cc(C(=O)NC(C)(C)c4ccccc4)ccc3=O)cc12 | 250 to 1000 | 2 to 250 | –
5 | CNC(=O)c1c(-c2ccc(F)cc2)nn2ccc(-c3cc(C(=O)NC4(c5ccccn5)CC4)c(OC(F)F)nc3C)c(F)c12 | 2 to 250 | – | –
6 | CNC(=O)c1c(-c2ccc(F)cc2)nn2ccc(-c3cc(C(=O)NC4(c5ccccn5)CC4)ccc3C)cc12 [drawing 88] | 2 to 250 | 2 to 250 | –
7 | CNC(=O)c1c(-c2ccc(F)cc2)nn2c(C)cc(-c3cc(C(=O)NC4(c5ccccc5)CC4)ccc3C)cc12 | 2 to 250 | 2 to 250 | –
8 | CNC(=O)c1c(-c2ccc(F)cc2)nn2ccc(-c3cc(F)cc(C(=O)NC4(c5ccccc5)CC4)c3)c(F)c12 | > 10000 | – | –
9 | CNC(=O)c1c(-c2ccc(F)cc2)nc2ccc(-c3cc(C(=O)NC(C)(C)c4ccccc4)ccc3Cl)cn12 | 2 to 250 | 2 to 250 | –
10 | CNC(=O)c1c(-c2ccccc2)nn2cc(-c3ccccc3C)ccc12 | > 10000 | > 10000 | –
11 | CNC(=O)c1c(-c2ccc(F)cc2)nn2ccc(-c3cccc(C(=O)NC4(c5ccccc5)CCC4)c3)cc12 | 2 to 250 | 2 to 250 | –
12 | CNC(=O)c1c(-c2ccc(F)cc2)oc2ccc(-c3cccc(C(=O)NC4(c5ccccn5)CC4)c3)nc12 | 250 to 1000 | 1000 to 10000 | –
13 | CNC(=O)c1c(-c2ccc(F)cc2)nn2ccc(-n3ccc(C(=O)NC(C)(C)c4ccccc4)c3)cc12 | > 10000 | 1000 to 10000 | –
14 | CNC(=O)c1c(-c2ccc(F)cc2)nn2cc(N(CCO)S(C)(=O)=O)c(C3CC3)cc12 | 1000 to 10000 | 2 to 250 | –
15 | CNC(=O)c1c(-c2ccc(F)cc2)nn2cc(N(CCO)S(C)(=O)=O)ccc12 | > 10000 | > 10000 | –
16 | CNC(=O)c1c(-c2ccc(F)cc2)nn2cccc(NC(=O)OC(C)(C)C)c12 | > 10000 | > 10000 | –
17 | CNC(=O)c1c(-c2ccccc2)nn2cc(I)ccc12 | > 10000 | > 10000 | –
18 | CNC(=O)c1c(-c2ccc(F)cc2)nn2ccc(-c3cc(C(=O)NC4(c5ccccc5)CC4)c(OC)cc3C)c(F)c12 [drawing 134] | 2 to 250 | 2 to 250 | –

Row | Structure (SMILES) | EC50 (HCV replicon cells; Hepatitis C virus) [nM] | IC50 [1] [nM] | EC50 (HCV replicon cells) [nM]
19 | CNC(=O)c1c(-c2ccc(F)cc2)nc2ccc(-c3cc(C(=O)NC(C)(C)c4ccccc4)ccc3C)cn12 | 2 to 250 | 2 to 250 | –
20 | CNC(=O)c1c(-c2ccc(F)cc2)nn2ccc(-c3cc(F)cc(C(=O)NC4(c5ccccn5)CC4)c3)c(F)c12 | 1000 to 10000 | – | –
21 | CNC(=O)c1c(-c2ccc(F)cc2)nn2ccc(-c3cc(C(=O)NC4(c5ccccn5)CC4)c(OC)nc3C)c(F)c12 | 2 to 250 | – | –
22 | CNC(=O)c1c(-c2ccc(F)cc2)nn2ccc(-c3cc(C(=O)NC4(c5ncccn5)CC4)c(OCC4CCOCC4)nc3C)c(F)c12 | 2 to 250 | – | –
23 | CNC(=O)c1c(-c2ccc(F)cc2)nn2ccc(-c3cc(C(=O)NC4(c5cc(F)ccn5)CC4)c(OC)nc3C)c(F)c12 | 2 to 250 | – | –
24 | CNC(=O)c1c(-c2ccc(F)cc2)nc2ccc(-c3ccc(-c4ccccc4Cl)c(C(=O)NCC(C)C)c3)cn12 [drawing 121] | 2 to 250 | – | –
25 | CNC(=O)c1c(-c2ccc(F)cc2)nn2ccc(-c3cc(C(=O)NC4(c5ccccn5)CC4)cc(F)c3C)c(F)c12 | 2 to 250 | – | –
26 | CNC(=O)c1c(-c2ccc(F)cc2)nc2ccc(-c3cc(C(=O)NC4(c5ccccn5)CC4)c(OC)cc3Cl)cn12 [drawing 124] | 250 to 1000 | – | –
27 | CNC(=O)c1c(-c2ccc(F)cc2)nn2ccc(-c3cc(C(=O)NC4(c5nc(C)no5)CC4)cc(F)c3C)c(F)c12 | 2 to 250 | – | –
28 | CNC(=O)c1c(-c2ccc(F)cc2)nn2ccc(-c3cc(C(=O)NC4(c5ccccc5)CC4)cc(F)c3C)c(F)c12 [drawing 138] | 2 to 250 | – | –
29 | CNC(=O)c1c(-c2ccc(F)cc2)nn2ccc(-c3cc(C(=O)NC4(c5ccccc5)CC4)c(OC(F)F)nc3C)c(F)c12 | 2 to 250 | – | –
30 | CNC(=O)c1c(-c2ccc(F)cc2)nn2ccc(-c3cc(C(=O)NC4(c5ccccc5)CC4)c(OC)nc3C)c(F)c12 | 2 to 250 | – | –
31 | CNC(=O)c1c(-c2ccc(F)cc2)nc2ccc(C3CC3C(=O)NC3(c4ccccn4)CC3)cn12 (centres unmarked) [drawing 160] | – | – | > 10000
32 | CNC(=O)c1c(-c2ccc(F)cc2)nn2ccc(-c3cc(C(=O)NC4(c5cnccn5)CC4)c(OC)cc3C)c(F)c12 | 2 to 250 | – | –
33 | CNC(=O)c1c(-c2ccc(F)cc2)nn2cc(N(CCO)S(C)(=O)=O)c(-c3cc(C(=O)NC4(c5ccccc5)CC4)ccc3C)cc12 | – | 2 to 250 | –
34 | CNC(=O)c1c(-c2ccc(F)cc2)nc2ccc(-c3ccc(-c4cccnc4)c(C(=O)NCC(C)C)c3)cn12 | 250 to 1000 | – | –
35 | CNC(=O)c1c(-c2ccc(F)cc2)nn2ccc(-c3cc(C(=O)NC4(c5ccccn5)CC4)c(OCC4CCOCC4)nc3C)c(F)c12 | 2 to 250 | – | –
36 | CNC(=O)c1c(-c2ccc(F)cc2)nn2ccc(-c3cc(C(=O)NC4(c5nnc(-c6ccccc6)[nH]5)CC4)c(OC)cc3C)c(F)c12 | 2 to 250 | – | –
